In patent publication US8178506B2, “Oligomeric compounds and compositions for use in modulation of small non-coding RNAs” (Regulus Therapeutics Inc., priority 2003, dated 2012):
In the oligonucleotide strings, read from the 5' end, every base follows the letter of its sugar. An asterisk marks phosphorothioate; unmarked linkages are phosphodiester. Other units and linkages are bracketed, terminal groups are in braces. A string of capitals states the bases alone. e = 2'-O-(2-methoxyethyl) (MOE); [5mC] = 5-methylcytosine

What was measured:
IL-12 mRNA = IL-12 mRNA in LPS-activated primary murine macrophages; format: cell-based, mouse; conditions: for IL-12 mRNA expression, % UTC: LPS, average of 3 treatments; for IL-12 mRNA expression, −IFN % UTC: 300 nM oligomeric compound and LPS, no IFN-gamma pretreatment, single experiment; for IL-12 mRNA expression, −IFN % UTC / IL-12 mRNA expression, +IFN % UTC: normalized to LPS-treated cells without oligomeric compound; for IL-12 mRNA expression, +IFN % UTC: 300 nM oligomeric compound, stimulation with IFN-gamma and LPS, average of 2 experiments
[1] = tested on: BJ, B16-F10, T47D, T47Dp53 and HeLa cells; test: Cell cycle assay (propidium iodide flow cytometry), cell line panel; format: cell-based; conditions: 150 nM oligomeric compound, 4.5 μg/ml LIPOFECTIN, after 72 hours, propidium iodide flow cytometry
leptin = test: Leptin secretion by adipocytes (ELISA); format: cell-based, human; conditions: adipocytes, 250 nM oligomeric compound, day nine post-transfection, relative to control (1.0); Table 16
preadipocytes = test: Caspase assay in preadipocytes; format: cell-based, human; conditions: untreated control set equal to 1.0
Text: The effect of oligomeric compounds of the present invention targeting miRNAs was examined in preadipocytes (Zen-Bio, Inc., Research Triangle Park, N.C.) using the fluorometric caspase assay previously described in Example 11.

Substance | IL-12 mRNA expression, % UTC (IL-12 mRNA; 75 nM, +IFN) | IL-12 mRNA expression, % UTC (IL-12 mRNA; 75 nM, −IFN) | IL-12 mRNA expression, % UTC (IL-12 mRNA; 150 nM, +IFN) | IL-12 mRNA expression, % UTC (IL-12 mRNA; 150 nM, −IFN) | IL-12 mRNA expression, −IFN % UTC (IL-12 mRNA) | IL-12 mRNA expression, +IFN % UTC (IL-12 mRNA) | IL-12 mRNA expression, % UTC (IL-12 mRNA; 300 nM, +IFN) | IL-12 mRNA expression, % UTC (IL-12 mRNA; 300 nM, −IFN) | IL-12 mRNA expression, % UTC (IL-12 mRNA; 600 nM, +IFN) | IL-12 mRNA expression, % UTC (IL-12 mRNA; 600 nM, −IFN) | G1 (percentage of cells in phase of the cell cycle) [1] | G2/M (percentage of cells in phase of the cell cycle) [1] | S (percentage of cells in phase of the cell cycle) [1] | SubG1 (percentage of cells in phase of the cell cycle) [1] | aneuploid (percentage of cells) [1] | Leptin (secretion) (leptin) | Fold Increase over UTC (caspase activity) (preadipocytes)
327941 (antisense eA*eA*e[5mC]*e[5mC]*e[5mC]*eA*e[5mC]*e[5mC]*eG*eA*e[5mC]*eA*eG*e[5mC]*eA*eA*eT*eG*eA*eA*eT*eG*eT*eT) [compound 327941] | 4 % UTC | 49 % UTC | 2 % UTC | 45 % UTC | 89 % UTC | 34 % UTC | 3 % UTC | 34 % UTC | 3 % UTC | 41 % UTC | 57.2% | 12.9% | 29.9% | 8.2% | 15.8% | 0.54 | 1.3 fold over UTC
327919 (antisense eG*eA*eA*eA*e[5mC]*e[5mC]*e[5mC]*eA*eG*e[5mC]*eA*eG*eA*e[5mC]*eA*eA*eT*eG*eT*eA*eG*e[5mC]*eT) [compound 327919] | – | – | – | – | 179 % UTC | 37 % UTC | – | – | – | – | 54.3% | 15.4% | 30.3% | 10.8% | 16% | 1.44 | 1.3 fold over UTC
